US7901893B2, “NPC1L1 (NPC3) and methods of identifying ligands thereof” (Merck Sharp & Dohme Corp., priority 2004, dated 2011)

Legend:
[1] = target: T1, rhesus brush border membrane vesicles (Macaca mulatta, UniProt A0MJA5); test: biochemical
T1 sequence (A0MJA5 1-1332): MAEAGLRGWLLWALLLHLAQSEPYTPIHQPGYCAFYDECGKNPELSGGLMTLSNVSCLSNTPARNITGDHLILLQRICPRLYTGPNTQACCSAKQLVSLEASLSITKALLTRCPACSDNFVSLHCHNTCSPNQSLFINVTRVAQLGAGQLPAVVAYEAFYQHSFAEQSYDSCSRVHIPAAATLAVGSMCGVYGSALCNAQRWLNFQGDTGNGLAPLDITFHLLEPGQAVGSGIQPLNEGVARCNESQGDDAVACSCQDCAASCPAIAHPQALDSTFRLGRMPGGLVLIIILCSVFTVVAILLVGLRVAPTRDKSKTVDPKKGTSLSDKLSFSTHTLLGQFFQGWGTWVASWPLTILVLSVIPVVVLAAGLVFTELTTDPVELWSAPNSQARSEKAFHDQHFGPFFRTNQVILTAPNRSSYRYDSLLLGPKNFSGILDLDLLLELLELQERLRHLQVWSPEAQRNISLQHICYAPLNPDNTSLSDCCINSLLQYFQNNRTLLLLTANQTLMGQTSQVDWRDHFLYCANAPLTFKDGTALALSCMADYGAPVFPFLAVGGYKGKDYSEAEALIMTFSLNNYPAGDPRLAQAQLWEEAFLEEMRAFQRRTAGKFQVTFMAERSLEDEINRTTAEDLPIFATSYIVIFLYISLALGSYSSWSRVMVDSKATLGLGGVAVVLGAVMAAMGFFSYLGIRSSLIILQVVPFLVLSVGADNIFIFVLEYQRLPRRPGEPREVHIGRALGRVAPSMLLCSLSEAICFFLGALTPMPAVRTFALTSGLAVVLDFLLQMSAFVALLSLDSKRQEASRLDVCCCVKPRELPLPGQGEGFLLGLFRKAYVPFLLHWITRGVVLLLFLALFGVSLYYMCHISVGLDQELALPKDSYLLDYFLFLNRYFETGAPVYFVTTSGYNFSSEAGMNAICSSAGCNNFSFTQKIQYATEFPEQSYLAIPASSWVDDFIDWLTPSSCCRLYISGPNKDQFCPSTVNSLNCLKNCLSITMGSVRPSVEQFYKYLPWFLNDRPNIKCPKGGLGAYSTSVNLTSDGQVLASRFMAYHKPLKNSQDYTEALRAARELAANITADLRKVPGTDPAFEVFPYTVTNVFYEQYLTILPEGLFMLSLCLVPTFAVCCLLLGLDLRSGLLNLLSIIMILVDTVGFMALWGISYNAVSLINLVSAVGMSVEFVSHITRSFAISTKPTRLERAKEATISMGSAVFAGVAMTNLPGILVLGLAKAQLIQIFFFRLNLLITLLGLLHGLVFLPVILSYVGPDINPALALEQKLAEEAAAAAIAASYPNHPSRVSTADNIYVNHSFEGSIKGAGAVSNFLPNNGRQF
Method: The intestines from freshly sacrificed animals were cut into segments, perfused with ice-cold saline buffer (Buffer A: 26 mM NaHCO3, 0.96 mM NaH2PO4, 5 mM HEPES, 5.5 mM glucose, 117 mM NaCl, 5.4 mM KCl, pH=7.4), placed on cold glass plates, opened longitudinally, and the mucosa scraped with glass microscope slips. This mucosa could be used fresh or frozen with identical results. To prepare the membranes, the mucosal scrapings were resuspended in 20 volumes of cold buffer consisting of 300 mM D-mannitol, 5 mM EGTA, 12 mM Tris, pH 7.4 with HCl, and containing 0.1 mM PMSF and a 1% dilution of a protease inhibitor cocktail (set 1, Calbiochem). They were homogenized using a Polytron at medium speed on ice until inspection with a microscope indicated complete cell lysis. Then, solid MgCl2 was added slowly with stirring to a final concentration of 10 mM, and the solution was kept stirring on ice for 15 min. Cellular debris was removed by centrifugation for 15 min at 3,000 g, and the membranes were recovered by centrifugation for 60 min at 48,000 g. The membranes were further rinsed by re-suspension in a buffer containing 50 mM D-mannitol, 5 mM EGTA, and 2 mM Tris at pH 7.40, and centrifugation for 60 min at 48,000 g. The final pellet was resuspended in 120 mM NaCl and 20 mM Tris at pH 7.40 to a concentration of ˜10-20 mg protein/ml, aliquoted, frozen in liquid nitrogen, and stored at −80 C. The activity was stable indefinitely and could be freeze-thawed with minimal loss of activity.
Binding assay. Assays were conducted in 12×75 mm glass test tubes and total volume 20-100 ul. In general, frozen membranes were diluted in buffer A or buffer A containing 0.03% taurocholate and 0.05% digitonin to a final concentration of 0.02 to 5 mg/ml. […] Competing ligands were likewise added as DMSO solutions to give a total 2-10% organic solvent content. […] At least 2 components of buffer A, the bicarbonate and phosphate salts, were later found to be inconsequential and were routinely omitted.
Bound ligand was quantified by single-tube vacuum filtration using GF/C glass fiber filters. […] Filtration was accomplished by adding 2.5 ml of ice cold buffer (120 mM NaCl, 0.1% sodium cholate, and 20 mM MES at pH 6.70) to the assay tube, pouring the mixture through the filter, and then rinsing the tube and filter twice more with another 2×2.5 ml buffer. The filters were counted in 7 ml vials using Packard DM liquid scintillation fluid.
Data analysis. Data from saturation experiments were subjected to a Scatchard analysis, and linear regression was performed to yield the equilibrium dissociation constant (Kd) and maximum receptor concentration (Bmax). […] Data from competition experiments were analyzed and IC50 values determined from Hill plots of the binding data.

[2] = test system: human, mouse or rat NPC1L1-CHO overexpressing membranes; test: SPA assay; type: binding; conditions: 0.1 nM ligand
Method: For each well of a 96 well plate, a reaction mixture of 10 μg human, mouse or rat NPC1L1-CHO overexpressing membranes (Biosignal) and 200 μg/well YSi-WGA-SPA beads (Amersham) in 100 μl is prepared in NPC1L1 assay buffer (25 mM HEPES, pH 7.8, 2 mM CaCl2, 1 mM MgCl2, 125 mM NaCl, 0.1% BSA). A 0.4 nM stock of ligand-[^125I]-ezetimibe- is prepared in the NPC1L1 assay buffer. The above solutions are added to a 96-well assay plate as follows: 50 μl NPC1L1 assay buffer, 100 μl of reaction mixture, 50 μl of ligand stock (final ligand concentration is 0.1 nM). The assay plates are shaken for 5 minutes on a plate shaker, then incubated for 8 hours before cpm/well are determined in Microbeta Trilux counter (PerkinElmer).

## O=C(O)[C@H]1O[C@@H](Oc2ccc([C@@H]3[C@@H](CC[C@H](O)c4ccc(F)cc4)C(=O)N3c3ccc(F)cc3)cc2)[C@H](O)[C@@H](O)[C@@H]1O [Compound 1, Ezetimibe glucuronide]
[1]
  Ki: 39 nM

## CS(=O)(=O)NCC#Cc1ccc(N2C(=O)[C@H](CC[C@H](O)c3ccc(F)cc3)[C@H]2c2ccc(O[C@@H]3O[C@H](C(=O)O)[C@@H](O)[C@H](O)[C@H]3O)cc2)cc1 [Compound 2, 4-[(2S,3R)-3-[(3S)-3 (4-fluorophenyl)-3-hydroxypropyl]-1-(4-{3-[(methylsulfonyl)amino]prop-1-yn-1-yl}phenyl)-4-oxoazetidin-2-yl]phenyl β-D-glucopyranosiduronic acid]
[1]
  Ki: 38 nM

## O=C1[C@H](CC[C@H](O)c2ccc(F)cc2)[C@@H](c2ccc(O)cc2)N1c1ccc(F)cc1 [ezetimibe]
[2]
  binding to cell membranes expressing human, mouse or rat NPC1L1: binds
